Assay results taken from patent US7718653B2, “Pyrimidine derivatives for inhibiting Eph receptors” (AstraZeneca AB, priority 2007, dated 2010).

Biological target: T1, EphB4 (Homo sapiens, UniProt P54760)
T1 construct: to generate full-length EphB4 containing a Myc-His tag at the C-terminus; expressed in transfected cells; EphB4-CHO)
T1 sequence (P54760 16-987): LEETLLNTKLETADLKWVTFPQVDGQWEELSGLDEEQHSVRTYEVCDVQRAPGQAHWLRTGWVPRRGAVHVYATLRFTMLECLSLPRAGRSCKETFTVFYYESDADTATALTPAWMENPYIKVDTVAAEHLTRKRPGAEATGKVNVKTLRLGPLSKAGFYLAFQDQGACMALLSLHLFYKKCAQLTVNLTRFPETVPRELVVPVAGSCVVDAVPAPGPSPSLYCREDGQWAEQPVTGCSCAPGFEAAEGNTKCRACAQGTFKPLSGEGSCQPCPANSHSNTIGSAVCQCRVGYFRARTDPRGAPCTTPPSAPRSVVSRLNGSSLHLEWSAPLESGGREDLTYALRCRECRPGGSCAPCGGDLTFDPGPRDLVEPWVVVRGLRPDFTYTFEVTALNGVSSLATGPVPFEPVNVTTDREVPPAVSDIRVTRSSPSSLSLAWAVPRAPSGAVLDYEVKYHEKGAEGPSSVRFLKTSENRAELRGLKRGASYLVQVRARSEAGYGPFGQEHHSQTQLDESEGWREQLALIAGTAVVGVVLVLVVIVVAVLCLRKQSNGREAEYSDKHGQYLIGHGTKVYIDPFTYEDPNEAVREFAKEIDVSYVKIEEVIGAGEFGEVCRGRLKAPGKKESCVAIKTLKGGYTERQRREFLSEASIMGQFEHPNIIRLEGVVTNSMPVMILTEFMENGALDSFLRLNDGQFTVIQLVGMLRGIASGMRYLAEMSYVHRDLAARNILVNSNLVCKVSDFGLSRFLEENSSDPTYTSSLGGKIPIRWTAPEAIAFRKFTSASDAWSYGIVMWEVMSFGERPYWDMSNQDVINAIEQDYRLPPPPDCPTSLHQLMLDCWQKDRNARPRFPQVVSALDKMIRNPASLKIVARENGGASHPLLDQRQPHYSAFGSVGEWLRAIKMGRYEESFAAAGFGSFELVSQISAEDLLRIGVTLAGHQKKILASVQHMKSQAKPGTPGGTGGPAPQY
Assay: In vitro EphB4 cell assay (EphB4 phosphorylation in EphB4-CHO cells, sandwich ELISA)
Assay type: cell-based
Conditions: stimulated with clustered ephrin-B2, read-out: IC50 in assay B
Protocol: B) In vitro EphB4 Cell Assay
The assay identifies inhibitors of cellular EphB4 by measuring a decrease in phosphorylation of EphB4 following treatment of cells with compound. The endpoint assay used a sandwich ELISA to detect EphB4 phosphorylation status. Briefly, Myc-tagged EphB4 from treated cell lysate was captured on the ELISA plate via an anti-c-Myc antibody. The phosphorylation status of captured EphB4 was then measured using a generic phosphotyrosine antibody conjugated to HRP via a colourimetric output catalysed by HRP, with level of EphB4 phosphorylation directly proportional to the colour intensity. Absorbance was measured spectrophotometrically at 450 nm.
Full length human EphB4 (Swiss-Prot Acc. No. P54760) was cloned using standard techniques from cDNA prepared from HUVEC using RT-PCR. The cDNA fragment was then sub-cloned into a pcDNA3.1 expression vector containing a Myc-His epitope tag to generate full-length EphB4 containing a Myc-His tag at the C-terminus (Invitrogen Ltd. Paisley, UK). CHO-K^1 cells (LGC Promochem, Teddington, Middlesex, UK, Catalogue No. CCL-61) were maintained in HAM's F12 medium (Sigma-Aldrich Company Ltd, Gillingham, Dorset SP8 4XT, Catalogue No. N4888) containing 10% heat-inactivated foetal calf serum (PAA lab GmbH, Pasching, Austria Catalogue No. PAA-A15-043) and 1% glutamax-1 (Invitrogen Ltd., Catalogue No. 35050-038) at 37° C. with 5% CO2. […]

c1cc(Nc2ccnc(Nc3cc(N4CCOCC4)nc(N4CCOCC4)c3)n2)c2cn[nH]c2c1 [Example 3, N2-(2,6-dimorpholinopyridin-4-yl)-N4-(1H-indazol-4-yl)pyrimidine-2,4-diamine]
IC50: 26 nM
